Test results from EP3074389B1, “QUINOLINE DERIVATIVES AS BROMODOMAIN INHIBITORS” (Gilead Sciences, Inc., priority 2013, dated 2015).

Key:
[1] = biological target: BRD4 domain 1 (Homo sapiens, UniProt O60885); test: Kd determination of inhibitors binding to BRD4 domain 1 (Epic label-free platform); settings: direct binding to immobilized BRD4 domain 1; tripling dilution series from 20µM; about 1hr equilibrium; rounded to whole number; read-out: Epic Kd BRD41
Protocol: (§1) Kd Determination of Inhibitors Binding to BRD4 Domain 1 and Domain 2
(§2) The binding of small molecule inhibitors to either BRD4 domain 1 or domain 2 were determined using the Epic, high-throughput, label-free platform (Corning, Lowell, MA). The Epic instrument incorporates an evanescent waveguide sensor within each well of its proprietary 384-well microplates. Direct binding of inhibitors to BRD4 immobilized onto the microplate well surface can be detected by exposing the waveguide to a broadband light source. The resulting resonant wavelength shift (measured in picometers (pm)) is proportional to the mass bound to the surface. Epic biochemical plates (Corning, Lowell, MA) were activated by adding 15 µL/well of 200 mM EDC and 50 mM Sulfo-NHS (Pierce Thermo Scientific, Rockford, IL) and incubated for 60 minutes at room temperature. Plates were washed three times with MilliQ water and dried by centrifugation (1 minute at 400 rpm). BRD4 immobilization was accomplished by resuspending the protein at a concentration of 150 µg/mL in 20 mM HEPES (pH 7) and adding 10 µL/well. […] Compound/inhibitor binding was determined by calculating difference between the baseline (first read) and second read. The resulting binding response was fitted to a single site binding isotherm in order to determine an equilibrium dissociation constant (Kd).

[2] = biological target: BRD4 domain 2 (Homo sapiens, UniProt O60885); test: Kd determination of inhibitors binding to BRD4 domain 2 (Epic label-free platform); settings: direct binding to immobilized BRD4 domain 2; tripling dilution series from 20µM; about 1hr equilibrium; rounded to whole number
Protocol: as §1, §2

SMILES | Kd [1] | Kd [2]
Cc1noc(C)c1-c1cc(S(=O)(=O)NC2CCCC2)c2cc(NCC(F)F)c(=O)[nH]c2c1 [Compound 79, N-cyclopentyl-3-((2,2-difluoroethyl)amino)-7-(3,5-dimethylisoxazol-4-yl)-2-oxo-1,2-dihydroquinoline-5-sulfonamide] | 1.35 µM | 0.607 µM
Cc1noc(C)c1-c1cc(S(=O)(=O)NC2CCCC2)c2nccnc2c1 [Compound 86, N-cyclopentyl-7-(3,5-dimethylisoxazol-4-yl)quinoxaline-5-sulfonamide] | 3.48 µM | 2.46 µM
Cc1noc(C)c1-c1cc(S(=O)(=O)NC2CCCC2)c2cc(C(N)=O)c(=O)[nH]c2c1 [Compound 69, 5-(N-cyclopentylsulfamoyl) -7-(3,5-dimethylisoxazol-4-yl)-2-oxo-1,2-dihydroquinoline-3-carboxamide] | 7.27 µM | 1.19 µM
Cc1noc(C)c1-c1cc(S(=O)(=O)N[C@H]2CC[C@H](O)CC2)c2cccnc2c1 [Compound 21, 7-(3,5-dimethylisoxazol-4-yl)-N-((1r,4r)-4-hydroxycyclohexyl)qu inoline-5-sulfonamide] | 10.4 µM | 17.3 µM
Cc1noc(C)c1-c1cc(S(=O)(=O)N[C@H](C)C(F)(F)F)c2cccnc2c1 [Compound 100, (R)-7-(3,5-dimethylisoxazol-4-trifluoropropan-2-yl)quinoline-5-sulfonamide] | 8.95 µM | 11.4 µM
Cc1noc(C)c1-c1cc(S(=O)(=O)NC2CCCC2)c2cc(NCC(C)(C)O)c(=O)[nH]c2c1 [Compound 98, N-cyclopentyl-7-(3,5-dimethylisoxazol-4-yl)-3-((2-hydroxy-2-methylpropyl)amino)-2-oxo-1,2-dihydroquinoline-5-sulfonamide] | 1.03 µM | 0.545 µM
Cc1noc(C)c1-c1cc(S(=O)(=O)N[C@@H]2CCC[C@@H]2C(=O)NCc2nccn2C)c2cccnc2c1 [Compound 43, (1S,2R)-2-(7-(3,5-dimethylisoxazol-4-yl)quinoline-5-sulfonamido)-N-((1-methyl-1H-imidazol-2-yl)methyl)cyclopentan ecarboxamide] | > 20 µM | 10.7 µM
Cc1noc(C)c1-c1cc(S(=O)(=O)N[C@@H]2CCC[C@H]2C(=O)N2CCN(C)CC2)c2cccnc2c1 [Compound 71, 7-(3,5-dimethylisoxazol-4-yl)-N-((1R,2R)-2-(4-methylpiperazine-1-carbonyl)cyclopentyl) quinoline-5-sulfonamide] | 4.89 µM | 4.15 µM
Cc1noc(C)c1-c1cc(S(=O)(=O)NC2CCCC2)c2cc(C#N)c(=O)[nH]c2c1 [Compound 31, 3-cyano-N-cyclopentyl-7-(3,5-dimethylisoxazol-4-yl)-2-oxo-1,2-dihydroquinoline-5-sulfonamide] | 0.867 µM | 0.634 µM
Cc1noc(C)c1-c1cc(S(=O)(=O)NC2CCCC2)c2ccc(N)nc2c1 [Compound 17, 2-amino-N-cyclopentyl-7-(3,5-dimethylisoxazol-4-yl)quinoline-5-sulfonamide] | 0.885 µM | 1.11 µM
Cc1noc(C)c1-c1cc(S(=O)(=O)NC2CCCC2)c2cc(C(=O)N(C)C)c(=O)[nH]c2c1 [Compound 75, 5-(N-cyclopentylsulfamoyl) -7-(3,5-dimethylisoxazol-4-yl)-N,N-dimethyl-2-oxo-1,2-dihydroquinoline-3 - carboxamide] | 10.7 µM | 8.94 µM
Cc1noc(C)c1-c1cc(S(=O)(=O)N[C@@H]2CCC[C@@H]2c2ccc(F)cc2)c2cccnc2c1 [Compound 13, 7-(3,5-dimethylisoxazol-4-yl)-N-((1R,2R)-2-(4-fluorophenyl)cyclopentyl)quinoline-5-sulfonamide] | 10 µM | 12.4 µM
Cc1noc(C)c1-c1cc(S(=O)(=O)NC2CCCC2)c2cc(NCCO)c(=O)[nH]c2c1 [Compound 57, N-cyclopentyl-7-(3,5-dimethylisoxazol-4-yl)-3-((2-hydroxyethyl)amino)-2-oxo-1,2-dihydroquinoline-5-sulfonamide] | 0.444 µM | 0.477 µM
Cc1noc(C)c1-c1cc(S(=O)(=O)NC2CCCC2)c2ccc(N3CCNCC3)nc2c1 [Compound 44, N-cyclopentyl-7-(3,5-dimethylisoxazol-4-yl)-2-(piperazin-1-yl)quinoline-5-sulfonamide] | 0.799 µM | 0.504 µM
Cc1noc(C)c1-c1cc(S(=O)(=O)NC2CCCC2)c2cc(NCCN3CCCC3)c(=O)[nH]c2c1 [Compound 89, N-cyclopentyl-7-(3,5-dimethylisoxazol-4-yl)-2-oxo-3-((2-(pyrrolidin-1-yl)ethyl)amino)-1,2-dihydroquinoline-5-sulfonamide] | 0.881 µM | 0.656 µM
Cc1noc(C)c1-c1cc(S(=O)(=O)NC2CCCC2)c2ccc(C(F)F)nc2c1 [Compound 2, N-cyclopentyl-2-(difluoromethyl)-7 - (3,5-dimethylisoxazol-4-yl)quinoline-5-sulfonamide] | 3.38 µM | 1.32 µM
Cc1noc(C)c1-c1cc(S(=O)(=O)N[C@@H]2CCC[C@@H]2O)c2cccnc2c1 [Compound 23, 7-(3,5-dimethylisoxazol-4-yl)-N-((1R,2S)-2-hydroxycyclopentyl)q uinoline-5-sulfonamide] | 19.5 µM | 16.7 µM
Cc1noc(C)c1-c1cc(S(=O)(=O)NC2CCCC2)c2cc(NCCN)c(=O)[nH]c2c1 [Compound 78, 3-((2-aminoethyl)amino)-N-cyclopentyl-7-(3,5-dimethylisoxazol-4-yl)-2-oxo-1,2-dihydroquinoline-5-sulfonamide] | 0.744 µM | 0.392 µM
Cc1noc(C)c1-c1cc(S(=O)(=O)NC2CCCC2)c2ccc(NCC3CC3)nc2c1 [Compound 5, N-cyclopentyl-2-((cyclopropylmethyl)amino)-7-(3,5-dimethylisoxazol-4-yl)quinoline-5-sulfonamide] | 1.06 µM | 1.46 µM
Cc1noc(C)c1-c1cc(S(=O)(=O)N[C@H]2CC[C@@H](O)C2)c2cccnc2c1 [Compound 19, 7-(3,5-dimethylisoxazol-4-yl)-N-((1S,3R)-3-hydroxycyclopentyl)q uinoline-5-sulfonamide] | 16.6 µM | 7.72 µM
Cc1noc(C)c1-c1cc(S(=O)(=O)NC2CCCC2)c2cc(NCCCN)c(=O)[nH]c2c1 [Compound 94, 3-((3-aminopropyl)amino)-N-cyclopentyl-7-(3,5-dimethylisoxazol-4-yl)-2-oxo-1,2-dihydroquinoline-5-sulfonamide] | 0.743 µM | 0.569 µM
COCCNc1cc2c(S(=O)(=O)NC3CCCC3)cc(-c3c(C)noc3C)cc2[nH]c1=O [Compound 58, N-cyclopentyl-7-(3,5-dimethylisoxazol-4-yl)-3-((2-methoxyethyl)amino)-2-oxo-1,2-dihydroquinoline-5-sulfonamide] | 0.313 µM | 0.32 µM
Cc1noc(C)c1-c1cc(S(=O)(=O)NC2CCCC2)c2cc(N3CCOC3=O)c(=O)[nH]c2c1 [Compound 64, N-cyclopentyl-7-(3,5-dimethylisoxazol-4-yl)-2-oxo-3-(2-oxooxazolidin-3-yl)-1,2-dihydroquinoline-5-sulfonamide] | 4.85 µM | 3.21 µM
Cc1noc(C)c1-c1cc(S(=O)(=O)NC2CCCC2)c2cc(-c3cnc(C)n3C)c(=O)[nH]c2c1 [Compound 30, N-cyclopentyl-3-(1,2-dimethyl-1H-imidazol-5-yl)-7-(3,5-dimethylisoxazol-4-yl)-2-oxo-1,2-dihydroquinoline-5-sulfonamide] | 6.4 µM | 1.7 µM
Cc1noc(C)c1-c1cc(S(=O)(=O)NC2CCCC2)c2cc(-n3cccn3)c(=O)[nH]c2c1 [Compound 33, N-cyclopentyl-7-(3,5-dimethylisoxazol-4-yl)-2-oxo-3-(1H-pyrazol-1-yl)-1,2-dihydroquinoline-5-sulfonamide] | 0.76 µM | 0.561 µM
Cc1noc(C)c1-c1cc(S(=O)(=O)NC2CCCC2)c2ccc(OCC3CC3)nc2c1 [Compound 6, N-cyclopentyl-2-(cyclopropylmethoxy) -7-(3,5-dimethylisoxazol-4-yl)quinoline-5-sulfonamide] | 2.11 µM | 2.04 µM
Cc1noc(C)c1-c1cc(S(=O)(=O)NC2CCCC2)c2ncc(=O)[nH]c2c1 [Compound 87, N-cyclopentyl-7-(3,5-dimethylisoxazol-4-yl)-2-oxo-1,2-dihydroquinoxaline-5-sulfonamide] | 2.2 µM | 1.34 µM
Cc1noc(C)c1-c1cc(S(=O)(=O)NC2(C#N)CC2)c2cccnc2c1 [Compound 49, N-(1-cyanocyclopropyl)-7-(3,5-dimethylisoxazol-4-yl)quinoline-5-sulfonamide] | > 20 µM | 18.8 µM
Cc1noc(C)c1-c1cc(S(=O)(=O)NC2CCC(C)(C)C2)c2cccnc2c1 (stereo not drawn) [Compound 39, N-(3,3-dimethylcyclopentyl)-7-(3,5-dimethylisoxazol-4-yl)quinoline-5-sulfonamide] | 5.56 µM | 13.4 µM
Cc1noc(C)c1-c1cc(S(=O)(=O)NC2CC2(C)C)c2cccnc2c1 (stereo not drawn) [Compound 83] | 16.7 µM | 16.6 µM
